Measured values: PubChem BioAssay AID1794821
pIC50: −log10 of the molar value.

Target: Sodium/hydrogen exchanger 9B2 (Homo sapiens) (UniProt Q86UD5)
Test: SLC9B2 sodium/proton exchange inhibitors – cell-based, pHluorin biosensor fluorescence, HEK-293, SLC9B2 overexpression, dose response (AID 1794821)
Settings: HEK-293 SLC9B2 OE, pHluorin pH biosensor fluorescence

Sodium/hydrogen exchanger 9B2 (Homo sapiens), sequence (Q86UD5 whole entry, looked up): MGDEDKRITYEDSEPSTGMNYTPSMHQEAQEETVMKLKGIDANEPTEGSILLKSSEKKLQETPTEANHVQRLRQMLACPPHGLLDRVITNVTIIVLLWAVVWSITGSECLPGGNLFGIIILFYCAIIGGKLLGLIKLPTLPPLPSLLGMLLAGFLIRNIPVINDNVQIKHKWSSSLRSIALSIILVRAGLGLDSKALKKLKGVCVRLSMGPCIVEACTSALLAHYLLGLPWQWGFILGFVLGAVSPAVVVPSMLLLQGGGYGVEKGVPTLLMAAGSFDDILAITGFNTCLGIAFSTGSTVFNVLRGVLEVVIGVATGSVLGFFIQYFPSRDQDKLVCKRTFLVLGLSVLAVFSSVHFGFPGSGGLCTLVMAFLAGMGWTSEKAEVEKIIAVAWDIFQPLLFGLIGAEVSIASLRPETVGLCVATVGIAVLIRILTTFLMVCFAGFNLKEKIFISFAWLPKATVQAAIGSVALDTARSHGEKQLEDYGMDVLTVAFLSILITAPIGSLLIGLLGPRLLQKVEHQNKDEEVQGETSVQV

Question: How did the pIC50 turn out when `O=C(CCc1ccc(O)cc1)c1c(O)cc(O)cc1O` was run?
Answer: The pIC50 was 4.05.
